7 compounds from patent publication US20090208573A1, “NOVEL POLYMORPH FORM OF IRBESARTAN” (LEK PHARMACEUTICALS D.D, priority 2004, published 2009) can be followed below.

The conditions of series [1]: SEM image, N=200 crystals. As for the experimental part:
The shape of crystals is determined by an analysis of an image, taken by the scanning electron microscope (SEM), JEOL JXA840A at magnification 500-2000×. The length/width ratio of the crystal habit is determined by measuring length and width of a representative sample (N=200) of crystals on the image, using the image analyzing software Olympus DP-Soft, v-3.2. The length/width ratio is calculated independently for each crystal. Finally, the number average of the ratio is determined and optionally histogram calculated.

The conditions of series [2]: 15% relative humidity and 23° C. As for the experimental part: A method of measuring electrostatic nature is a tribogeneration where relative charge on the powdered sample is measured with an electrometer equipped with a Faraday cup (NanoCoulumb Meter, Model 284, Monroe Electronics, USA). Prior to measurement, the charge is generated by strongly vibrating the sample (approximately 3 g) on a dry Petri dish (D=24 cm) for 2 minutes. The charged sample is then transferred to a Faraday cup of the electrometer with a plastic spoon and its charge is measured by an electrometer. After the charge measurement the sample is weighted and the relative charge calculated. All measurements are performed at controlled dry atmosphere conditions (15% relative humidity and 23° C.).

Where two headings read alike, the source gives them in different places.

`CCCCC1=NC2(CCCC2)C(=O)N1Cc1ccc(-c2ccccc2-c2nnn[nH]2)cc1` [Example 2, 2-n-butyl-4-spirocyclopentane-1-[((2′-tetrazol-5-yl)biphenyl-4-yl)methyl]-2-imidazolin-5-one]: in series [1], the “a (length of crystals)” value is recorded as 78 ± 68 μm; the “a:b (length/width ratio, number average)” value was determined as 13.4 ± 1.9; the “b (width of crystals)” value came out at 6.7 ± 2.8 μm. For the same compound, the “chargeab. (chargeability by tribogeneration)” value in series [2] is given as −32 ± 4.6 10^−9 As/g.

On to `CCCCC1=NC2(CCCC2)C(=O)N1Cc1ccc(-c2ccccc2-c2nnn[nH]2)cc1` [Example 6, 2-n-butyl-4-spirocyclopentane-1-[((2′-tetrazol-5-yl)biphenyl-4-yl)methyl]-2-imidazolin-5-one], for which, in series [1], the “a (length of crystals)” value came out at 32 ± 32 μm; the “a:b (length/width ratio, number average)” value is 22 ± 18; the “b (width of crystals)” value is recorded as 1.4 ± 0.6 μm. Moreover, the “chargeab. (chargeability by tribogeneration)” value in series [2] is listed as −27.9 ± 2.8 10^−9 As/g.

Consider `CCCCC1=NC2(CCCC2)C(=O)N1Cc1ccc(-c2ccccc2-c2nnn[nH]2)cc1` [Example 7, 2-n-butyl-4-spirocyclopentane-1-[((2′-tetrazol-5-yl)biphenyl-4-yl)methyl]-2-imidazolin-5-one], for which, in series [1], the “a (length of crystals)” value was 21 ± 17 μm; the “a:b (length/width ratio, number average)” value stood at 13 ± 9; the “b (width of crystals)” value was determined as 2.6 ± 1.0 μm. Further, in series [2], the “chargeab. (chargeability by tribogeneration)” value is −26.5 ± 6 10^−9 As/g. Also, in series [2] (listed as 1649), the “chargeab. (chargeability by tribogeneration)” value is −26.5±6 10^−9 As/g.

Turning to `CCCCC1=NC2(CCCC2)C(=O)N1Cc1ccc(-c2ccccc2-c2nnn[nH]2)cc1` [Example 5, 2-n-butyl-4-spirocyclopentane-1-[((2′-tetrazol-5-yl)biphenyl-4-yl)methyl]-2-imidazolin-5-one], in series [1], the “a (length of crystals)” value amounted to 58 ± 50 μm; the “a:b (length/width ratio, number average)” value was determined as 9.5 ± 8; the “b (width of crystals)” value is listed as 6.4 ± 1.2 μm. The “chargeab. (chargeability by tribogeneration)” value in series [2] is −17.1 ± 2.9 10^−9 As/g.

Take `CCCCC1=NC2(CCCC2)C(=O)N1Cc1ccc(-c2ccccc2-c2nnn[nH]2)cc1` [Example 3, 2-n-butyl-4-spirocyclopentane-1-[((2′-tetrazol-5-yl)biphenyl-4-yl)methyl]-2-imidazolin-5-one]: in series [1], the “a (length of crystals)” value amounted to 20.7 ± 17.4 μm; the “a:b (length/width ratio, number average)” value turned out to be 23.3 ± 23; the “b (width of crystals)” value is listed as 1.0 ± 0.5 μm. Further, the “chargeab. (chargeability by tribogeneration)” value in series [2] is given as −45.8 ± 4.9 10^−9 As/g. Also, the “chargeab. (chargeability by tribogeneration)” value in series [2] (listed as 3913D) was 45.8±4.9 10^−9 As/g.

`CCCCC1=NC2(CCCC2)C(=O)N1Cc1ccc(-c2ccccc2-c2nnn[nH]2)cc1` [Example 4, 2-n-butyl-4-spirocyclopentane-1-[((2′-tetrazol-5-yl)biphenyl-4-yl)methyl]-2-imidazolin-5-one]: in series [1], the “a (length of crystals)” value amounted to 130 ± 96 μm; the “a:b (length/width ratio, number average)” value was 17 ± 12.9; the “b (width of crystals)” value worked out at 7.9 ± 3.4 μm. The “chargeab. (chargeability by tribogeneration)” value in series [2] is −27.5 ± 5.6 10^−9 As/g.

With `CCCCC1=NC2(CCCC2)C(=O)N1Cc1ccc(-c2ccccc2-c2nnn[nH]2)cc1` [Example 1, 2-n-butyl-4-spirocyclopentane-1-[((2′-tetrazol-5-yl)biphenyl-4-yl)methyl]-2-imidazolin-5-one], in series [1], the “a (length of crystals)” value is 14.9 ± 10.1 μm; the “a:b (length/width ratio, number average)” value stood at 13 ± 10; the “b (width of crystals)” value came to 1.2 ± 1.4 μm. The “chargeab. (chargeability by tribogeneration)” value in series [2] is recorded as −33.7 ± 15 10^−9 As/g.
